# Data reported in publication PMC11830721 (Frontiers in Pharmacology, 2025).
# Columns and labels:
# [1] = tested on: COLO 829BL cells; experiment: MTT assay, COLO 829BL (normal hematopoietic); format: cell-based; details: 2–64 μM
# From the text: The human AML cell line MV4-11, which bears exclusive FLT3-ITD mutation genes, was purchased from the American Type Culture Collection (ATCC, Manassas, VA, United States), and the AML cell line NB4, a FLT3-wildtype cell line, was obtained from the China Center for Type Culture Collection (CCTCC, Wuhan, China). In addition, the normal hematopoietic cell line was COLO 829BL from ATCC. The cells were maintained in RPMI-1640 medium supplemented with 10% FBS, and 1% penicillin and streptomycin. The cells were cultured in an incubator at 37°C with 5% CO2. […] The high-performance liquid chromatography (HPLC) spectra data for each compound are provided in the (Supplementary Figures S1–S6). The FLT3-ITD mutant protein was purchased from Abcam (Cambridge, United Kingdom).
# The effects of the test compounds on MV4-11, NB4, and COLO 829BL cell lines were quantitatively evaluated according to the methods previously reported ([Zhou et al., 2022]).
# Subsequently, to further validate the specificity of FLIN-4 for cells expressing FLT3-ITD, we conducted MTT assays to assess the specificity and cytotoxicity of FLIN-4 within the concentration range of 2–64 μM on NB4 cells (harboring FLT3 wild-type) and COLO 829BL cells (representing normal hematopoietic cells). […]
# [2] = target: ABL1 (Homo sapiens, UniProt P00519); experiment: SelectScreen kinase selectivity assay; format: biochemical; details: ten-dose 0.25–128 μM
# Description: (§1) Following the standardized kinase activity assay protocol as previously reported, we utilized the SelectScreen Kinase Profiling Service (Thermo Fisher Scientific) to determine the kinase selectivity profile of FLIN-4 ([van der Wel et al., 2020]). Through a ten-dose dilution series ranging from 0.25 μM to 128 μM in dose-response experiments, we precisely measured the inhibitory effect of FLIN-4 on the substrate phosphorylation reactions catalyzed by a panel of kinases, and thus ascertained the half-maximal inhibitory concentrations (IC50) for each kinase.
# [3] = target: ALK (Homo sapiens, UniProt Q9UM73); experiment: SelectScreen kinase selectivity assay; format: biochemical; details: ten-dose 0.25–128 μM
# Description: as §1
# [4] = target: BLK (Homo sapiens, UniProt P51451); experiment: SelectScreen kinase selectivity assay; format: biochemical; details: ten-dose 0.25–128 μM
# Description: as §1
# [5] = target: BTK (Homo sapiens, UniProt Q06187); experiment: SelectScreen kinase selectivity assay; format: biochemical; details: ten-dose 0.25–128 μM
# Description: as §1
# [6] = target: CDK1 (Homo sapiens, UniProt P06493); experiment: SelectScreen kinase selectivity assay; format: biochemical; details: ten-dose 0.25–128 μM
# Description: as §1
# [7] = target: DDR1 (Homo sapiens, UniProt Q08345); experiment: SelectScreen kinase selectivity assay; format: biochemical; details: ten-dose 0.25–128 μM
# Description: as §1
# [8] = target: EPHA1 (Homo sapiens, UniProt P21709); experiment: SelectScreen kinase selectivity assay; format: biochemical; details: ten-dose 0.25–128 μM
# Description: as §1
# [9] = target: EPHA3 (Homo sapiens, UniProt P29320); experiment: SelectScreen kinase selectivity assay; format: biochemical; details: ten-dose 0.25–128 μM
# Description: as §1
# [10] = target: EPHA6 (Homo sapiens, UniProt Q9UF33); experiment: SelectScreen kinase selectivity assay; format: biochemical; details: ten-dose 0.25–128 μM
# Description: as §1
# [11] = target: EPHB2 (Homo sapiens, UniProt P29323); experiment: SelectScreen kinase selectivity assay; format: biochemical; details: ten-dose 0.25–128 μM
# Description: as §1
# [12] = target: EPHB4 (Homo sapiens, UniProt P54760); experiment: SelectScreen kinase selectivity assay; format: biochemical; details: ten-dose 0.25–128 μM
# Description: as §1
# [13] = target: ERBB2 (Homo sapiens, UniProt P04626); experiment: SelectScreen kinase selectivity assay; format: biochemical; details: ten-dose 0.25–128 μM
# Description: as §1
# [14] = target: FES (Homo sapiens, UniProt P07332); experiment: SelectScreen kinase selectivity assay; format: biochemical; details: ten-dose 0.25–128 μM
# Description: as §1
# [15] = target: FGFR2 (Homo sapiens, UniProt P21802); experiment: SelectScreen kinase selectivity assay; format: biochemical; details: ten-dose 0.25–128 μM
# Description: as §1
# [16] = target: FGFR3 (Homo sapiens, UniProt P22607); experiment: SelectScreen kinase selectivity assay; format: biochemical; details: ten-dose 0.25–128 μM
# Description: as §1
# [17] = target: FGFR4 (Homo sapiens, UniProt P22455); experiment: SelectScreen kinase selectivity assay; format: biochemical; details: ten-dose 0.25–128 μM
# Description: as §1
# [18] = target: FGR (Homo sapiens, UniProt P09769); experiment: SelectScreen kinase selectivity assay; format: biochemical; details: ten-dose 0.25–128 μM
# Description: as §1
# [19] = target: INSRR (Homo sapiens, UniProt P14616); experiment: SelectScreen kinase selectivity assay; format: biochemical; details: ten-dose 0.25–128 μM
# Description: as §1
# [20] = target: ITK (Homo sapiens, UniProt Q08881); experiment: SelectScreen kinase selectivity assay; format: biochemical; details: ten-dose 0.25–128 μM
# Description: as §1
# [21] = target: JAK1 (Homo sapiens, UniProt P23458); experiment: SelectScreen kinase selectivity assay; format: biochemical; details: ten-dose 0.25–128 μM
# Description: as §1
# [22] = target: JAK2 (Homo sapiens, UniProt O60674); experiment: SelectScreen kinase selectivity assay; format: biochemical; details: ten-dose 0.25–128 μM
# Description: as §1
# [23] = target: JAK3 (Homo sapiens, UniProt P52333); experiment: SelectScreen kinase selectivity assay; format: biochemical; details: ten-dose 0.25–128 μM
# Description: as §1
# [24] = target: LTK (Homo sapiens, UniProt P29376); experiment: SelectScreen kinase selectivity assay; format: biochemical; details: ten-dose 0.25–128 μM
# Description: as §1
# [25] = target: MERTK (Homo sapiens, UniProt Q12866); experiment: SelectScreen kinase selectivity assay; format: biochemical; details: ten-dose 0.25–128 μM
# Description: as §1
# [26] = target: MET (Homo sapiens, UniProt P08581); experiment: SelectScreen kinase selectivity assay; format: biochemical; details: ten-dose 0.25–128 μM
# Description: as §1
# [27] = target: MST1R (Homo sapiens, UniProt Q04912); experiment: SelectScreen kinase selectivity assay; format: biochemical; details: ten-dose 0.25–128 μM
# Description: as §1
# [28] = target: NTRK3 (Homo sapiens, UniProt Q16288); experiment: SelectScreen kinase selectivity assay; format: biochemical; details: ten-dose 0.25–128 μM
# Description: as §1
# [29] = target: PIM1 (Homo sapiens, UniProt P11309); experiment: SelectScreen kinase selectivity assay; format: biochemical; details: ten-dose 0.25–128 μM
# Description: as §1
# [30] = target: PLK1 (Homo sapiens, UniProt P53350); experiment: SelectScreen kinase selectivity assay; format: biochemical; details: ten-dose 0.25–128 μM
# Description: as §1
# [31] = target: RAF1 (Homo sapiens, UniProt P04049, Y340D/Y341D); experiment: SelectScreen kinase selectivity assay; format: biochemical; details: ten-dose 0.25–128 μM
# Description: as §1
# [32] = target: TYRO3 (Homo sapiens, UniProt Q06418); experiment: SelectScreen kinase selectivity assay; format: biochemical; details: ten-dose 0.25–128 μM
# Description: as §1
# [33] = target: ZAP70 (Homo sapiens, UniProt P43403); experiment: SelectScreen kinase selectivity assay; format: biochemical; details: ten-dose 0.25–128 μM
# Description: as §1
# FGFR3, sequence (P22607 23-806): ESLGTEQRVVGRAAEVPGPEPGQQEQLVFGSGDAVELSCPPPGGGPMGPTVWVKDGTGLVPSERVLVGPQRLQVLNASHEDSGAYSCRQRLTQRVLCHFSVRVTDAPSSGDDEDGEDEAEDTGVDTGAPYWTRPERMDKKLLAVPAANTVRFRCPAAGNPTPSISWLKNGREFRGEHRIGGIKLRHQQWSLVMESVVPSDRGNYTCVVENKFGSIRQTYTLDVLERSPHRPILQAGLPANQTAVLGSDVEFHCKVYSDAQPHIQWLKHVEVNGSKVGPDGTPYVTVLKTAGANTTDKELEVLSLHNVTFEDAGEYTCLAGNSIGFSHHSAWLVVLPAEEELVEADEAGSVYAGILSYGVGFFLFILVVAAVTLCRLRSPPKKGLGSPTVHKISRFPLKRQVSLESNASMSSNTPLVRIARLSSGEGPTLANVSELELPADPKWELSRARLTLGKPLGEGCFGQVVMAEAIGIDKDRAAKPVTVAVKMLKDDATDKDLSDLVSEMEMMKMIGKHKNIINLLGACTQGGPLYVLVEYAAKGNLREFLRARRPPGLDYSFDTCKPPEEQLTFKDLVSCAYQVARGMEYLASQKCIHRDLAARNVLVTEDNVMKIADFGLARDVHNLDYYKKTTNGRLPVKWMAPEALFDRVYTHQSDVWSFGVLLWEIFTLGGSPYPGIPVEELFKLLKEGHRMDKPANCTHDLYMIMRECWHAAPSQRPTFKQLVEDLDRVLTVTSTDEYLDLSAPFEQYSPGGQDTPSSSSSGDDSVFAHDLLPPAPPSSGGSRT
# FGFR2, sequence (P21802 22-821): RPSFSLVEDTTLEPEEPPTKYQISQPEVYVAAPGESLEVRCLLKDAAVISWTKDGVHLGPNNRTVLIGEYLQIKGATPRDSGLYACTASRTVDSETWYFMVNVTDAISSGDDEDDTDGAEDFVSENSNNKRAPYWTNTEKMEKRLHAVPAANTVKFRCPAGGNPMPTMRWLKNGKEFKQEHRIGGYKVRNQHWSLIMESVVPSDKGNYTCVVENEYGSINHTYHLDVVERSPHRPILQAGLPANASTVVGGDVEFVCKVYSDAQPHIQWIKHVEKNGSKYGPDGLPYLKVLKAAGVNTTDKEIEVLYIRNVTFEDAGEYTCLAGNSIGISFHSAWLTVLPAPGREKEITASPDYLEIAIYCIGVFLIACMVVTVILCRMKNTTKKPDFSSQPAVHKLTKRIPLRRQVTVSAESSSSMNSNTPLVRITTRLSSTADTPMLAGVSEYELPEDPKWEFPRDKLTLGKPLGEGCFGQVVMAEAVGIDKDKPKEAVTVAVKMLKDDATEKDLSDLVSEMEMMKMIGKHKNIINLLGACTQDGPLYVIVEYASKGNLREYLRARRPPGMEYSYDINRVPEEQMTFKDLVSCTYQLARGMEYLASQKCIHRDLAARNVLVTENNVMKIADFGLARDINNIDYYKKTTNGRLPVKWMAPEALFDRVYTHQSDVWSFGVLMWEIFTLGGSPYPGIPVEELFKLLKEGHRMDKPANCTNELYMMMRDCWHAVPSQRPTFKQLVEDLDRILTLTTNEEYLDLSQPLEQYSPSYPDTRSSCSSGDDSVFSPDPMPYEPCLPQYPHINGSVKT
# INSRR, sequence (P14616 27-1297): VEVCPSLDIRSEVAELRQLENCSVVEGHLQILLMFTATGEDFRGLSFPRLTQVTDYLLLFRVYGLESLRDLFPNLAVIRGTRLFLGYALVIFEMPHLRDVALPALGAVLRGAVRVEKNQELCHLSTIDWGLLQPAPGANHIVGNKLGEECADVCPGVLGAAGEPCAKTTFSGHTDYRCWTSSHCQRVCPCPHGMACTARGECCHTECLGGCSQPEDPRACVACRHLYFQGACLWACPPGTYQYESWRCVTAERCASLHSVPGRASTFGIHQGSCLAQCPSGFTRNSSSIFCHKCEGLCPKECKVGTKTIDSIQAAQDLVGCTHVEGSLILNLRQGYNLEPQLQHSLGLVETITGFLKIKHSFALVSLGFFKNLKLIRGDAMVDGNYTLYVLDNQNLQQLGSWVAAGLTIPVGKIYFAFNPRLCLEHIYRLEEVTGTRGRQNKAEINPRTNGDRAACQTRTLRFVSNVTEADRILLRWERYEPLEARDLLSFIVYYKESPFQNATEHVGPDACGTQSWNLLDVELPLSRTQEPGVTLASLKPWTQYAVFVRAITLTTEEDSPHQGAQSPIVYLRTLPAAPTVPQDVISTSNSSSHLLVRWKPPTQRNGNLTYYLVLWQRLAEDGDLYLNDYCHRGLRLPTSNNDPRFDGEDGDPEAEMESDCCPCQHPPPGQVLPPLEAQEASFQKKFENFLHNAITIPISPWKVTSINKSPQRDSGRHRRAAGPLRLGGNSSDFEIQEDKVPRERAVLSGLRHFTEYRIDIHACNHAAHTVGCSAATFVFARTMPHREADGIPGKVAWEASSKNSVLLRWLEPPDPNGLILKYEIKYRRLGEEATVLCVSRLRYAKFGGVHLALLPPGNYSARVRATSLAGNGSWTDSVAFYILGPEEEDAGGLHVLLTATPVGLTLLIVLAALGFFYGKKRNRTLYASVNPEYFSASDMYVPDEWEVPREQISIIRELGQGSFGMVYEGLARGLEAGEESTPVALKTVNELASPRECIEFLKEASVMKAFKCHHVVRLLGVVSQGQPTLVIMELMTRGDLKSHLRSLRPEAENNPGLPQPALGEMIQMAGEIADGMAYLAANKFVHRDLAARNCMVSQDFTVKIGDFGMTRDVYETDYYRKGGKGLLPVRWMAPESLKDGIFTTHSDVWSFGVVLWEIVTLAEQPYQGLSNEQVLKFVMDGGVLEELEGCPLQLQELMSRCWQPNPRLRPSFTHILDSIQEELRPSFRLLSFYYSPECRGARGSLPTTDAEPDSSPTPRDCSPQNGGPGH
# PLK1, sequence (P53350 whole entry): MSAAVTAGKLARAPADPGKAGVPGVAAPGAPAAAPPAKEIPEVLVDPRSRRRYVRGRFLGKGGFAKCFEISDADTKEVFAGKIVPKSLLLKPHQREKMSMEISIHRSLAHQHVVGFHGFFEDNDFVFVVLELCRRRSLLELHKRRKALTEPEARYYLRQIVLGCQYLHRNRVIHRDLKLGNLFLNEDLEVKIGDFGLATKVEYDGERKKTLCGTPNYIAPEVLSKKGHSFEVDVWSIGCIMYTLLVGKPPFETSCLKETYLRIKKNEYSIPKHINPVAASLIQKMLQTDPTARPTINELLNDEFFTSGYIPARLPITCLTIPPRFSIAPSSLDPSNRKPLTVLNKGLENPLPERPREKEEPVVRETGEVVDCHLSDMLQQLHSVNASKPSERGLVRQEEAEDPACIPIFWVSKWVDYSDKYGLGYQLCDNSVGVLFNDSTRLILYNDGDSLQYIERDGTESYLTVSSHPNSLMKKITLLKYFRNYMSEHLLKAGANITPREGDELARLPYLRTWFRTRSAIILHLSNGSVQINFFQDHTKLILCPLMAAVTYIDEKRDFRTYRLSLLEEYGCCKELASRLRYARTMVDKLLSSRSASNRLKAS
# JAK1, sequence (P23458 whole entry): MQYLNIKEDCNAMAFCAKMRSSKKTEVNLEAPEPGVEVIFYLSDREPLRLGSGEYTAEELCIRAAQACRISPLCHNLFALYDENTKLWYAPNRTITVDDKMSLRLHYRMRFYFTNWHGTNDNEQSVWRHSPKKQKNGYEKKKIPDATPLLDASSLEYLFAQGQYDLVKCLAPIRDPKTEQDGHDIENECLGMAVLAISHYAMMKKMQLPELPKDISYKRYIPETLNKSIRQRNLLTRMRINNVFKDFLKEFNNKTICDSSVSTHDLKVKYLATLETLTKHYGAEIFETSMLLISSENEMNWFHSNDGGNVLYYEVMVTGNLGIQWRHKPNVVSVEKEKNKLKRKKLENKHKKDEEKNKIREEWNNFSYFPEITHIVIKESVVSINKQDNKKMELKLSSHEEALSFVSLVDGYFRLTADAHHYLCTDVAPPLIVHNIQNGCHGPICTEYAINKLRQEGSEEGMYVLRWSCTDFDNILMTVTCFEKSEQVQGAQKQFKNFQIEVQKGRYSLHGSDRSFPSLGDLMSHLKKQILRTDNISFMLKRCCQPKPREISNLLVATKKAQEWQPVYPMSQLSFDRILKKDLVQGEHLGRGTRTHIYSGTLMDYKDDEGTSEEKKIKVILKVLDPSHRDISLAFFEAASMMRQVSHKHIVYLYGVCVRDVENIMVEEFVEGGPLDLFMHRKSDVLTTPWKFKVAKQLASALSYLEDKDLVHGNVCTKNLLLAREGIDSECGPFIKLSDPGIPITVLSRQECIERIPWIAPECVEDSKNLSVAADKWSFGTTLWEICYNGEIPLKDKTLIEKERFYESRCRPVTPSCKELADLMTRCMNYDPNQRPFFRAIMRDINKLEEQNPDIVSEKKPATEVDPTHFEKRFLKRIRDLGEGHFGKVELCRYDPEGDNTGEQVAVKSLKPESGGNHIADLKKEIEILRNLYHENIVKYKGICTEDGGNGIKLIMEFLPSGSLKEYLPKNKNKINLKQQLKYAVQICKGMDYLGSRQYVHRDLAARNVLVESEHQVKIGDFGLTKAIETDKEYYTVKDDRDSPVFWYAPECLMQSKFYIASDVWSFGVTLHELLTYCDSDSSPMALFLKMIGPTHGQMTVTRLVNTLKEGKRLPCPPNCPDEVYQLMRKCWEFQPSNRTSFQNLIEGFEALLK
# RAF1, sequence (P04049 306-648 Y340D/Y341D limits assumed): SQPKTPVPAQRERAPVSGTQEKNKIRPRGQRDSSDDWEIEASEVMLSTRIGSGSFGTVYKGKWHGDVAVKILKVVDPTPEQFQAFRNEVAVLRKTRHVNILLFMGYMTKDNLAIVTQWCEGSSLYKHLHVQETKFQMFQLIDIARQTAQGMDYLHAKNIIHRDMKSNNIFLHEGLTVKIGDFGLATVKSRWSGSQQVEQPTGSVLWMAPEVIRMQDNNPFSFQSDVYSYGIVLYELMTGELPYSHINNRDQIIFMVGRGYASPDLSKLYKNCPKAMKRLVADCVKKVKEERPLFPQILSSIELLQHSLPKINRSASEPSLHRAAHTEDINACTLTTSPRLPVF
structure (smiles),measurement,setting,value
CCc1nc(C(N)=O)c(Nc2ccc(N3CCC(Nc4ccccc4)CC3)c(OC)c2)nc1NC1CCOC(C(O)CO)C1 (stereo not drawn) [FLIN-4],Survival rate of COLO 829BL cells,[1],did not induce any significant changes in the survival rates
same,IC50,[2],> 10 µM
same,IC50,[3],> 10 µM
same,IC50,[4],> 10 µM
same,IC50,[5],> 10 µM
same,IC50,[6],> 10 µM
same,IC50,[7],> 10 µM
same,IC50,[8],> 10 µM
same,IC50,[9],> 10 µM
same,IC50,[10],> 10 µM
same,IC50,[11],> 10 µM
same,IC50,[12],> 10 µM
same,IC50,[13],> 10 µM
same,IC50,[14],> 10 µM
same,IC50,[15],> 10 µM
same,IC50,[16],> 10 µM
same,IC50,[17],> 10 µM
same,IC50,[18],> 10 µM
same,IC50,[19],> 10 µM
same,IC50,[20],> 10 µM
same,IC50,[21],> 10 µM
same,IC50,[22],> 10 µM
same,IC50,[23],> 10 µM
same,IC50,[24],> 10 µM
same,IC50,[25],> 10 µM
same,IC50,[26],> 10 µM
same,IC50,[27],> 10 µM
same,IC50,[28],> 10 µM
same,IC50,[29],> 10 µM
same,IC50,[30],> 10 µM
same,IC50,[31],> 10 µM
same,IC50,[32],> 10 µM
same,IC50,[33],> 10 µM
